The numbers were not newly measured in patent US9668844B2, “Device for fixation at a dental site” (Colldent Y.A. Ltd., priority 2013, dated 2017), which cites them from elsewhere.

One data set relates to bacteria. The note with it: see Paine, M. L. et al JADA 129 (1998).

`[F][Sn][F]` [stannous fluoride]: the antibacterial activity result in the data set with bacteria was “has shown antibacterial activity”. As for `F` [fluoride], where the note is “acute”, the “acute lethal dose of fluoride (F)” value was 33 mg F/Kg body weight. Further, the chronic toxicity (chronic) is listed as 0.1 mg F/Kg.
